Measurements from PubChem BioAssay (NCI).
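Cultured in 96-well plates, cells were exposed to test compound for 48 hours across five concentrations. TGI is the concentration that stops growth completely.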

How the values were obtained:
Assay in all cases: inhibition of tumour cell growth, NCI panel, 48 h
NCI-H460 lung = tested on: NCI-H460 lung
NCI-H23 lung = tested on: NCI-H23 lung
OVCAR-3 ovarian = tested on: OVCAR-3 ovarian
A498 renal = tested on: A498 renal
LOX IMVI melanoma = tested on: LOX IMVI melanoma
DU-145 prostate = tested on: DU-145 prostate
K-562 leukemia = tested on: K-562 leukemia
OVCAR-4 ovarian = tested on: OVCAR-4 ovarian
SW-620 colon = tested on: SW-620 colon
M14 melanoma = tested on: M14 melanoma
KM12 colon = tested on: KM12 colon
SR leukemia = tested on: SR leukemia
SNB-75 CNS = tested on: SNB-75 CNS
RPMI-8226 leukemia = tested on: RPMI-8226 leukemia
OVCAR-5 ovarian = tested on: OVCAR-5 ovarian
SF-539 CNS = tested on: SF-539 CNS
NCI-H522 lung = tested on: NCI-H522 lung
MALME-3M melanoma = tested on: MALME-3M melanoma
A549 NSCLC = tested on: A549 NSCLC
ACHN renal = tested on: ACHN renal
T-47D breast = tested on: T-47D breast
SK-OV-3 ovarian = tested on: SK-OV-3 ovarian
UACC-62 melanoma = tested on: UACC-62 melanoma
IGROV1 ovarian = tested on: IGROV1 ovarian
SK-MEL-28 melanoma = tested on: SK-MEL-28 melanoma
HT29 colon = tested on: HT29 colon
SK-MEL-2 melanoma = tested on: SK-MEL-2 melanoma
SNB-19 CNS = tested on: SNB-19 CNS
TK-10 renal = tested on: TK-10 renal
HS 578T breast = tested on: HS 578T breast
HOP-92 NSCLC = tested on: HOP-92 NSCLC
MDA-MB-435 = tested on: MDA-MB-435
EKVX NSCLC = tested on: EKVX NSCLC
OVCAR-8 ovarian = tested on: OVCAR-8 ovarian
786-0 renal = tested on: 786-0 renal
HCT-15 colon = tested on: HCT-15 colon
UO-31 renal = tested on: UO-31 renal
SF-295 CNS = tested on: SF-295 CNS
COLO 205 colon = tested on: COLO 205 colon
MDA-MB-231 breast = tested on: MDA-MB-231 breast
NCI-H226 lung = tested on: NCI-H226 lung
MCF7 breast = tested on: MCF7 breast
HOP-62 NSCLC = tested on: HOP-62 NSCLC
SN12C renal = tested on: SN12C renal
BT-549 breast = tested on: BT-549 breast
U251 CNS = tested on: U251 CNS
SF-268 CNS = tested on: SF-268 CNS
PC-3 prostate = tested on: PC-3 prostate
RXF 393 renal = tested on: RXF 393 renal
NCI/ADR-RES ovarian = tested on: NCI/ADR-RES ovarian
CAKI-1 renal = tested on: CAKI-1 renal
SK-MEL-5 melanoma = tested on: SK-MEL-5 melanoma
HCT-116 colon = tested on: HCT-116 colon
UACC-257 melanoma = tested on: UACC-257 melanoma
CCRF-CEM leukemia = tested on: CCRF-CEM leukemia

Measured: TGI

Cc1ccc(N2CCN(CCC(=O)O)CC2)cc1
> 100 µM: NCI-H460 lung | NCI-H23 lung | OVCAR-3 ovarian | A498 renal | LOX IMVI melanoma | DU-145 prostate | K-562 leukemia | OVCAR-4 ovarian | SW-620 colon | M14 melanoma | KM12 colon | SR leukemia | SNB-75 CNS | RPMI-8226 leukemia | OVCAR-5 ovarian | SF-539 CNS | NCI-H522 lung | MALME-3M melanoma | A549 NSCLC | ACHN renal | T-47D breast | SK-OV-3 ovarian | UACC-62 melanoma | IGROV1 ovarian | SK-MEL-28 melanoma | HT29 colon | SK-MEL-2 melanoma | SNB-19 CNS | TK-10 renal | HS 578T breast | HOP-92 NSCLC | MDA-MB-435 | EKVX NSCLC | OVCAR-8 ovarian | 786-0 renal | HCT-15 colon | UO-31 renal | SF-295 CNS | COLO 205 colon | MDA-MB-231 breast | NCI-H226 lung | MCF7 breast | HOP-62 NSCLC | SN12C renal | BT-549 breast | U251 CNS | SF-268 CNS | PC-3 prostate | RXF 393 renal | NCI/ADR-RES ovarian | CAKI-1 renal | SK-MEL-5 melanoma | HCT-116 colon | UACC-257 melanoma | CCRF-CEM leukemia
